Assay results from ChEMBL document CHEMBL3244148, “Agonist effects of beta-phenethylamines on the noradrenergic cyclic adenosine 3',5'-monophosphate generating system in rat limbic forebrain. Stereoisomers of p-hydroxynorephedrine” (J Med Chem, 1977).
pEC50: −log10 of the molar value. Where a name gives a salt, the structure may show the parent alone. Activity calls are given as the source filed them. No cut-off for these calls is given here.

species: Rattus norvegicus; assay: Agonist activity at noradrenergic receptor in Sprague-Dawley rat limbic forebrain assessed as increase in c-AMP production up to 10^-4 M incubated for 10 mins; type: tissue-based; details: Limbic system

Row | Compound | Activity
1 | NCCc1ccc(O)c(O)c1 | inactive
2 | C[C@H](N)Cc1ccc(O)cc1 | inactive
3 | C[C@H](N)Cc1ccccc1 | inactive
4 | C[C@H](N)[C@H](O)c1ccc(O)cc1 | inactive
5 | C[C@H](N)[C@H](O)c1cccc(O)c1 | inactive
6 | NCC(O)c1ccc(O)cc1 (racemic) | inactive
7 | C[C@H](N)[C@@H](O)c1ccc(O)cc1 | inactive

test system: not listed separately; assay: Agonist activity at noradrenergic receptor in Sprague-Dawley rat limbic forebrain assessed as increase in c-AMP production incubated for 10 mins; details: not given

Row | Compound | pEC50
8 | CC(C)NC[C@H](O)c1ccc(O)c(O)c1 | 5.30
9 | CNC[C@@H](O)c1ccc(O)c(O)c1 | < 4.00
10 | CNC[C@H](O)c1ccc(O)c(O)c1 [EPINEPHRINE BITARTRATE] | 5.30
11 | CC(N)C(O)c1ccc(O)c(O)c1 (racemic) [NORDEFRIN HYDROCHLORIDE] | 5.00
